Test: Maxima of UV-A and UV-B absorption of quinoxaline derivatives in 2-propanol
Type: physicochemical
Settings: 1 mg of substance per 100 ml of solvent; for UV-A (400 320 nm) Max. abs.: absorbance at UV-A maximum; for UV-B (280 320 nm) Max. abs.: absorbance at UV-B maximum; for UV-A (400 320 nm) λ [nm]: wavelength of UV-A maximum; for UV-B (280 320 nm) λ [nm]: wavelength of UV-B maximum
Method: The measurement was carried out in 2-propanol at a concentration of 1 mg of substance per 100 ml of solvent.

SMILES | UV-A (400 320 nm) Max. abs. | UV-B (280 320 nm) Max. abs. | UV-A (400 320 nm) λ [nm] | UV-B (280 320 nm) λ [nm]
CC(=O)c1ccc(Nc2cnc3ccccc3n2)cc1 | 0.622 | 1.062 | 374.9 nm | 314.7
CCC(=O)c1cnc2ccccc2n1 | – | 0.3236 | – | 307.0
O=c1[nH]c2ccccc2nc1/C=C/c1ccccc1 | 0.7324 | – | 388.5 nm | –
c1ccc(CNc2cnc3ccccc3n2)cc1 | 0.2602 | – | 364.0 nm | –
CCOC(=O)c1ccc(Nc2cnc3ccccc3n2)cc1 | 0.5414 | 1.2839 | 375.0 nm | 306.0
COc1cc(Nc2nc3ccccc3nc2-c2ccccc2)cc(OC)c1OC | 0.175 | 0.475 | 390.4 nm | 287.6
c1ccc2nc3c(nc2c1)nc1ccccn13 | 0.411 | – | 348.3 nm | –
COc1ccc(Nc2cnc3ccccc3n2)cc1 | 0.306 | 0.837 | 386.9− nm | 291.1
COC(=O)c1cc(Nc2cnc3ccccc3n2)cc(C(=O)OC)c1 | 0.322 | 0.789 | 368.3 nm | 287.7
O=C(/C=C/c1ccccc1)c1cnc2ccccc2n1 | 0.1731 | – | 329.0 nm | –
CC(C)(C)OC(=O)c1ccc(Nc2nc3ccccc3nc2Cl)cc1 | – | 0.4672 | – | 291.0
Clc1nc2ccccc2nc1-c1ccccc1 | 0.173 | – | 335.0 nm | –
O=C(O)c1cc(Nc2cnc3ccccc3n2)cc(C(=O)O)c1 | 0.319 | 0.887 | 372.8 nm | 286.9
CC(C)c1ccc(C(=O)c2nc3ccccc3nc2C(=O)c2ccc(C(C)C)cc2)cc1 | – | 0.45 | – | 280.0
O=C(/C=C/c1ccc2c(c1)OCO2)c1cnc2ccccc2n1 | 0.5101 | 0.4556 | 381.0 nm | 305.0
CCOC(=O)CCC(NC(=O)c1ccc(Nc2cnc3ccccc3n2)cc1)C(=O)OCC (centres unmarked) | 0.3076 | 0.756 | 380.0 nm | 307.0
O=c1[nH]c2ccccc2nc1/C=C/C=C/c1ccccc1 | – | 0.6004 | – | 281.5
Cc1ccc(/C=C/c2nc3ccccc3nc2/C=C/c2ccc(C)cc2)cc1 | – | 0.3327 | – | 316.0
CCOC(=O)c1nc2ccccc2nc1Nc1ccc(C(C)=O)cc1 | 1.2265 | – | 328.5 nm | –
Nc1nc2ccccc2nc1Cl | 0.427 | – | 353.4 nm | –
CCOC(=O)c1nc2ccccc2nc1Nc1cc(OC)c(OC)c(OC)c1 | – | 0.614 | – | 295.6

SMILES | UV-A (400 320 nm) Max. abs. | UV-B (280 320 nm) Max. abs. | UV-A (400 320 nm) λ [nm] | UV-B (280 320 nm) λ [nm]
O=C(c1ccccc1)c1cnc2ccccc2n1 | – | 0.330 | – | 300.0
CCOC(=O)c1nc2ccccc2[nH]c1=O | 0.245 | 0.279 | 355.8 nm | 290.0
CCC(CC)COC(=O)c1ccc(Nc2cnc3ccccc3n2)c(O)c1 | – | 0.5569 | – | 291.0
COC(=O)CCc1ccc2nc3nc4ccccc4nc3n2c1 | 0.3747 | – | 349.5 nm | –
FC(F)(F)c1cc(CNc2cnc3ccccc3n2)cc(C(F)(F)F)c1 | 0.192 | – | 359.0 nm | –
Fc1ccc2nc3nc4ccccc4nc3n2c1 | 0.132 | – | 344.6 nm | –
CCOC(=O)c1nc2ccccc2nc1Nc1cc(OC)c(OC)cc1C(=O)O | – | 0.5713 | – | 295.0
CC(=O)c1nc2ccccc2nc1C(C)=O | – | 0.3011 | – | 310.0
CCOC(=O)c1nc2ccccc2nc1Nc1cc(F)c(F)cc1C(=O)O | 0.1187 | 0.4067 | 381.5 nm | 287.0
COc1cc(Nc2cnc3ccccc3n2)c(C(=O)O)cc1OC | 0.456 | 0.455 | 380.1 nm | 300.1
CC(C)c1ccc(/C=C/C(=O)c2cnc3ccccc3n2)cc1 | 0.7731 | – | 343.0 nm | –
CC(C)OC(=O)c1ccc(Nc2nc3ccccc3nc2-c2ccccc2)cc1 | 0.342 | 0.849 | 381.9 nm | 305.3
Fc1nc2ccccc2nc1N(c1ncccn1)c1nc2ccccc2nc1F | 0.446 | – | 329.8 nm | –
COc1cc(Nc2cnc3ccccc3n2)cc(OC)c1OC | 0.281 | 0.679 | 386.1 nm | 275.6
c1ccc2nc(-c3cnc4ccccc4n3)cnc2c1 | 0.7687 | – | 341.0 nm | –
COc1cc(Nc2nc3ccccc3nc2-c2ccccc2)c(C(=O)O)cc1OC | 0.235 | 0.635 | 393.4 nm | 285.6
Cc1nc2ccc(Cl)cc2nc1C | 0.400 | – | 322.0 nm | –
Brc1cnc2ccccc2n1 | 0.4424 | – | 321.0 nm | –
O=C(O)c1ccc(Nc2cnc3ccccc3n2)c(O)c1 | 0.5594 | – | 381.0 nm | –
O=C(OC/C=C/c1ccccc1)c1ccccc1Nc1cnc2ccccc2n1 | 0.469 | – | 386.3 nm | –
Brc1ccc2nc3nc4ccccc4nc3n2c1 | 0.4113 | – | 354 nm | –

SMILES | UV-A (400 320 nm) Max. abs. | UV-B (280 320 nm) Max. abs. | UV-A (400 320 nm) λ [nm] | UV-B (280 320 nm) λ [nm]
O=c1[nH]c2ccccc2nc1-c1ccccc1 | 0.360 | 0.373 | 365.0 nm | 305.0
O=C(O)c1ccc(NCc2cnc3ccccc3n2)cc1 | – | 0.837 | – | 302.9
O=C(O)c1ccc(CNc2nc3ccccc3nc2Cl)cc1 | – | 0.2183 | – | 290.0
CC(C)(C)OC(=O)c1ccc(Nc2cnc3ccccc3n2)cc1 | 0.506 | 1.172 | 374.3 nm | 306.3
CCOC(=O)c1nc2ccccc2nc1Nc1ccc(C(=O)O)cc1 | – | 1.270 | – | 311.5
CCOC(=O)c1nc2ccccc2nc1Cl | 0.243 | – | 322.9 nm | –
Cc1ccc(/C=C/c2nc3ccccc3[nH]c2=O)cc1 | 0.4660 | – | 336.0 nm | –
FC(F)(F)c1cc(Nc2cnc3ccccc3n2)cc(C(F)(F)F)c1 | 0.262 | – | 359.8 nm | –
O=C(O)c1ccc(Nc2cnc3ccccc3n2)cc1 | 0.378 | 1.141 | 374.1 nm | 297.2
Fc1cc(F)c(N(c2cnc3ccccc3n2)c2cnc3ccccc3n2)c(F)c1 | – | 0.966 | – | 289.3
Clc1ccc(Nc2cnc3ccccc3n2)c(Cl)c1 | 0.248 | 0.757 | 365.2 nm | 280.7
Cc1ccc(S(=O)(=O)c2cnc3ccccc3n2)cc1 | 0.1595 | – | 321.0 nm | –
C(#Cc1nc2ccccc2nc1C#Cc1ccccc1)c1ccccc1 | 0.4443 | 0.8366 | 385.0 nm | 294.0
CC(C)OC(=O)c1ccc(Nc2cnc3ccccc3n2)cc1 | 0.555 | 1.262 | 374.3 nm | 306.7
CC(=O)c1ccn2c(c1)nc1nc3ccccc3nc12 | 0.533 | – | 364.8 nm | –
c1ccc2nc(Oc3cnc4ccccc4n3)cnc2c1 | 0.2587 | – | 320.0 nm | –
O=C(O)c1ccc(Nc2nc3ccccc3nc2-c2ccccc2)cc1 | 0.325 | 0.452 | 376.8 nm | 303.8
O=C(/C=C/C=C/c1ccccc1)c1cnc2ccccc2n1 | 1.0497 | 0.6584 | 365.0 nm | 302.0
Clc1nc2ccccc2nc1C#Cc1ccccc1 | – | 0.6431 | – | 286.0
CCc1ccn2c(c1)nc1nc3ccccc3nc12 | 0.536 | – | 356.1 nm | –
CN(C)c1cnc2ccccc2n1 | 0.413 | – | 378.0 nm | –

From US20030207886A1, “Preparation containing quinoxaline derivatives” (priority 2000, published 2003)
